Measured values reported in article PMC7125202, “Targeting of radioactive platinum-bisphosphonate anticancer drugs to bone of high metabolic activity” (Scientific Reports, 2020).

Tests used:
[1] = In vivo biodistribution of cold Pt-species, Pt quantified by ICP-MS; set-up: species or system C57Bl/6N mice; settings: 24 h after i.v. injection, 2.5 mM Pt
Method: The Pt-BP and Pt(NO3)2(en) complexes were administered intravenously in the tail vein of C57BL/6N mice (n = 5 per each platinum complex). Sterile saline solution (0.9% NaCl) was used to dissolve platinum complexes. The concentration of injected Pt-BP or Pt(NO3)2(en) solutions was 2.5 mM platinum, calculated based on the maximum tolerated dose for cisplatin of 6 mg per kg body weight of the mice[37]. The mice were euthanized with CO2 24 h after injection, after which blood (approximately 600 mg per mouse), liver, spleen, kidneys, heart, lungs, and bones (femur, humerus, tibia, and spine) were harvested. Approximately half of the tissues were prepared for inductively coupled plasma-mass spectrometry (ICP-MS) analysis by digestion in 65% (v/v) nitric acid at 75 °C for approximately three days until the tissues were digested completely. Each tissue was cut into three samples and the samples were weighed prior to digestion in nitric acid. The digested solutions were diluted with up to 6 ml of Milli-Q water to obtain 2% (v/v) nitric acid in order to measure platinum concentrations by ICP-MS (X series I, Thermo Electron Corporation). The detection limit for determining platinum concentration with ICP-MS was 1 ppb. The standard solutions were prepared from 1000 mg·1^−1 platinum ICP standard Certipur (1.70341.0100, Merck) ranging from 1 ppb to 2500 ppb. The measured isotopes for platinum were ^194Pt, ^195Pt, ^196Pt, and ^198Pt. Furthermore, scandium (^45Sc) was added as an internal standard, which was prepared with 1000 mg·1^−1 scandium standard Certipur (1.19513.0100, Merck) to correct for matrix effects and long-term fluctuations of the measurement signal. The platinum concentrations in the various tissues were calculated relative to 1 mg of the specific tissue and represented as ng Pt/mgtissue. Three replicates of Pt-BP and Pt(NO3)2(en) solutions with volumes and platinum concentrations identical to the solutions injected to the mice (200 µl and 2.5 mM platinum, respectively) were also analyzed for their platinum content using ICP-MS as control. The percentage of injected dose (%ID) of Pt-BP and Pt(NO3)2(en) in each mouse tissue 24 h after injection was calculated by dividing the total amount of platinum per tissue through the total amount of platinum detected in the control solutions[52].

[2] = tested on: genomic DNA; assay: Pt-DNA adducts quantification using High Resolution ICP-MS; type: in vivo, C57Bl/6N mice; settings: 24 h after i.v. injection
From the text: The remaining half of the tissues from all mice were dissected and weighed for DNA extraction. DNA was isolated using DNeasy Blood & Tissue Kit (Qiagen, USA) for soft tissue and ChargeSwitch® gDNA Plant Kit (Thermofisher, USA) for bone samples. The DNA was digested with DNase I Solution (Thermofisher, USA) and filtered using 0.2 µm acrodisc GHP before analysis for Pt content using high resolution-ICP-MS (Element2, Thermo Finnigan). The detection limit for determining the platinum concentration was 2 ng/l. The standard solutions were prepared from 1000 mg·1^−1 platinum ICP standard Certipur (1.70341.0100, Merck) ranging from 5 ppt to 10 ppb. The selected isotopes for platinum were ^194Pt and ^195Pt. Furthermore, thallium (Tl) was added as an internal standard and determined at a molecular mass of 205 Da, which was prepared using a 1000 mg·1^−1 thallium standard (CGTL-1, Inorganic Ventures) to correct for matrix effects and long-term fluctuations of the analytical signal. The Pt-DNA adduct concentration is represented as percentage of Pt involved in adduct formation to the total amount of Pt accumulated in the specific tissue.

[3] = micro-SPECT/CT quantification of 195mPt biodistribution; type: in vivo, C57BL/6N mice
From the text: (§1) The ^195mPt-BP and ^195mPt(NO3)2(en) complexes were reconstituted in sterile saline solution (0.9% NaCl) and administered intravenously in the tail vein of C57BL/6N mice (n = 5 per each platinum complex). All mice received an intravenous injection with a dose of 11.2 ± 0.4 MBq ^195mPt. Immediately after injection and 1, 3, and 7 days after injection, images were acquired with U-SPECT-II/CT(MILabs) as reported previously[54],[55]. Mice were scanned under general anesthesia (isoflurane/O2) for 15 to 60 minutes using the 1.0-mm diameter pinhole mouse high sensitivity collimator tube, followed by a CT scan (spatial resolution […], 65 kV, […]) for anatomical reference. Scans were reconstructed with MILabs reconstruction software using an ordered-subset expectation maximization algorithm, with a voxel size of 0.4 mm. SPECT/CT scans were analyzed and maximum intensity projections were created using the Inveon Research Workplace software (IRW, version 4.1). A 3D volume of interest was drawn using CT threshold to differentiate soft tissue from skeletal tissue and uptake was quantified as the percentage injected dose per gram (%ID/g), assuming a tissue density of 1 g/cm^3. The hot spot in the skeletal tissue region of interest (ROI) was chosen with the location of the edge of the ROI contour representing 75% of maximum intensity. The mice from ^195mPt(NO3)2(en) group were euthanized with CO2 after 3 days due to excessive loss of body weight, whereas mice from treated with ^195mPt-BP were sacrificed at the end of experiments. After euthanizing the animals, blood (approximately 600 mg per mouse), liver, spleen, kidneys, heart, lungs, and bones (femur, humerus, tibia, and spine) were harvested and analyzed with a gamma counter (1470 Wizard, Perkin Elmer).

[4] = In vivo biodistribution of radioactive Pt-species, excised tissues by gamma counting; set-up: species or system C57BL/6N mice; settings: 11.2 MBq i.v.
From the text: as §1

[5] = Laser ablation ICP-MS imaging of Pt co-localization with calcium in mice tibia; type: in vivo; settings: proximal tibia sections; for percentage of Pt co-localized with calcium: LA-ICP-MS
Method: The experimental procedure was carried out as reported previously. The mice tibias were incubated in neutral buffered formaldehyde for 36 h. Later, tibias were dehydrated in ascending grades of 70% to 100% ethanol and embedded in poly(methyl methacrylate) (pMMA) resin, freshly prepared by mixing 600 mL of methyl methacrylate monomer (Acros Organics BVBA, Geel, Belgium), 60 ml dibutyl phthalate (Merck KGaA, Darmstadt, Germany) and 1.25 g perkadox®16 (Aldrich, Netherlands). The polymerization was followed by cutting serial horizontal sections (perpendicular to the tibia sample) of 5 µm thickness within the trabecular region of interest using an RM2155 microtome with a TC 65 blade (Leica Microsystems GmbH, Wetzlar, Germany). Microscopic images were obtained using an inverted fluorescence/bright field microscope (BZ-9000, Keyence Deutschland GmbH, Neu-Isenburg, Germany). For image recording and processing, the software BZ-II Viewer and BZ-II Analyzer were used, respectively. To calculate the percentage of platinum co-localized with calcium, the background of the image and all pixels without hard bone tissue were excluded from the calculations. A pixel is considered to be background if its calcium intensity is below 15%. The platinum concentrations of the remaining pixels were then added up and divided by the sum of the entire platinum image to yield the percentage of platinum co-localized with calcium.

[6] = Body weight, behaviour and toxicity of mice after injection of radioactive Pt-species; type: in vivo, C57BL/6N mice; settings: for body weight and behavioral changes: 11.2 ± 0.4 MBq 195mPt i.v., first 3 days p.i. for 195mPt(NO3)2(en)
Method: All in vivo work was conducted in accordance with ISO standards and the principles set forth by the Revised Dutch Act on Animal Experimentation. The in vivo experiments were approved by the institutional Animal Welfare Committee of the Radboud University Medical Center (Radboudumc), Nijmegen, the Netherlands. For both the experiment, 10 male C57Bl/6N mice (Charles River), with an average weight of ~25 g and an age of approximately 6–8 weeks were housed in filter-topped cages (5 mice per cage) under non-sterile standard conditions provided with standard animal food and water ad libitum. The mice were allowed to adapt to laboratory conditions for 1 week before experimental use. The humane end point were defined as follows, body weight gain of> 20% within 10 days, no water or food intake, weight loss of >15% within 1–2 days or> 20% of normal body weight of that animal, serious circulatory or respiratory problems, behavioural changes (hyperactivity, passive, auto-mutilation), and morbidities such as impaired mobility or lethargy.
as §1, with “The mice from ^195mPt(NO3)2(en) group were euthanized with CO2 after 3 days due to excessive loss of body weight, whereas mice from treated with ^195mPt-BP were sacrificed at the end of experiments.” left out

[7] = Whole-body 195mPt radioactivity in mice measured using an ionization chamber; type: in vivo; settings: day 7
From the text: Figure S3. ^195mPt radioactivity in mice. Percentage of injected dose (%ID) of ^195mPt-BP and ^195mPt(NO3)2(en) in mice, measured using an ionization chamber. ** P < 0.01; ****P < 0.0001 as determined by two-way ANOVA with a Bonferroni (multiple comparisons) post-hoc test.

[8] = tested on: Ehrlich solid carcinoma; set-up: method as in doi:10.1007/s10967-015-4053-1; settings: cited from earlier work
[9] = set-up: method as in PMID 29037232; settings: cited from earlier work
[10] = tested on: zebrafish embryos; assay: Phenotypic assessment of drug-treated zebrafish embryos; type: in vivo, zebrafish (Danio rerio); settings: Pt-BP 5-100 µM, cisplatin 30 µM
Method: The zebrafish (Danio rerio) strains were kept under standard conditions (28 °C in E3 buffer) until 48 hours post fertilization (hpf) as described previously. All animal experiments were conducted at larval stages before the point of independent feeding and were in agreement with the animal protection law (Tierschutzgesetz).
48 hpf wildtype embryos were separated into 6 groups (n = 20 embryos/group), i.e., control (untreated) and embryos treated with 5 µM, 10 µM, 50 µM, and 100 µM Pt-BP as well as 30 µM cisplatin. Both types of compounds were added externally to the medium and the embryos were incubated at 33 °C for the duration of the experiment. The embryos were assessed each day for phenotypic toxicity until 2 days post treatment (48 hpt) and imaged live in an Olympus MVX10 microscope.

Structure (SMILES): NCCN.O=[N+]([O-])[O-].O=[N+]([O-])[O-].[Pt+2] [Pt(NO3)2(en), reference compound]
- Pt uptake in hard tissue [1]: 2.69 ± 0.26 %ID/g
- Pt uptake in kidney [1]: 3.38 ± 0.28 %ID/g
- Pt uptake in liver [1]: 1.54 ± 0.33 %ID/g
- Pt uptake in spleen [1]: 0.38 ± 0.04 %ID/g
- Pt accumulation in hard tissue (bone) ([1]; normalized for tissue weight): ~ 1 ng Pt/mg tissue
- Pt-DNA adduct formation relative to total Pt uptake, kidney [2]: 4.8%
- Pt-DNA adduct formation relative to total Pt uptake, spleen [2]: 9.8%

Structure (SMILES): NCCN.O=[N+]([O-])[O-].O=[N+]([O-])[O-].[195Pt+2] [^195mPt(NO3)2(en), reference compound]
- hard-to-soft tissue uptake ratio ([3]; 1 h, excluding bladder uptake): 1
- hard-to-soft tissue uptake ratio ([3]; 24 h): 1.2
- hard-to-soft tissue uptake ratio ([3]; 72 h): 1.2
- uptake in bone (hard tissue) ([3]; micro-SPECT/CT, 1 h p.i.): 1.5 ± 0.1 %I.D/g
- uptake in soft tissue ([3]; micro-SPECT/CT, 1 h p.i.): 1.43 ± 0.21 %I.D/g
- uptake in bones (femur, tibia, humerus) ([4]; gamma counting after 3 days): 1.4 ± 0.15 %ID/g
- uptake in kidneys ([4]; gamma counting after 3 days): 3.95 ± 0.24 %ID/g
- uptake in liver ([4]; gamma counting after 3 days): 3.22 ± 0.28 %ID/g
- uptake in lungs ([4]; gamma counting after 3 days): 1.08 ± 0.16 %ID/g
- uptake in spleen ([4]; gamma counting after 3 days): 2.76 ± 0.67 %ID/g
- Pt not co-localized with Ca (Pt in soft tissue of the proximal tibia) ([5]; Fig. 4C): 10%
- percentage of Pt co-localized with calcium [5]: 37.3%
- co-localization of Pt with Ca relative to that of 195mPt-BP ([5]; total amount of Pt, Fig. 4C): 27%
- body weight and behavioral changes [6]: significant body weight loss
- weight loss ([6]; humane end point, euthanized after 3 days): more than 20%

Structure (SMILES): NCCN.NCCN.O.O.O.O=S(=O)([O-])O.[NH3+]CC1(O)P2(=O)[O][195Pt][O]P1(=O)[O][195Pt][O]2 (stereo not drawn) [^195mPt-BP]
- hard-to-soft tissue uptake ratio ([3]; 1 h, excluding bladder uptake): 3.3
- hard-to-soft tissue uptake ratio ([3]; 24 h): 6
- hard-to-soft tissue uptake ratio ([3]; 72 h): 6.7
- uptake in bone (hard tissue) ([3]; micro-SPECT/CT, 1 h p.i.): 1.8 ± 0.25 %I.D/g
- uptake in soft tissue ([3]; micro-SPECT/CT, 1 h p.i.): 0.93 ± 0.27 %I.D/g
- uptake in soft tissue ([3]; micro-SPECT/CT, 24 h): 0.18 ± 0.03 %I.D/g
- uptake in hot spots in bone (ROI 75% of maximum intensity) compared to 195mPt(NO3)2(en) ([3]; micro-SPECT/CT, all time points): twofold increased uptake
- uptake in bone (hard tissue) ([3]; micro-SPECT/CT, from 24 h until day 7): 1.0 ± 0.12 %I.D/g
- uptake in femur ([4]; gamma counting after 7 days): 3.1 ± 0.37 %ID/g
- uptake in humerus ([4]; gamma counting after 7 days): 2.53 ± 0.33 %ID/g
- uptake in kidneys ([4]; gamma counting after 7 days): 0.43 ± 0.16 %ID/g
- uptake in soft tissues except kidneys ([4]; gamma counting after 7 days): < 0.11 %ID/g
- uptake in tibia ([4]; gamma counting after 7 days): 2.86 ± 0.46 %ID/g
- whole-body radioactivity [7]: 2 %ID
- Pt not co-localized with Ca (Pt in soft tissue of the proximal tibia) ([5]; Fig. 4C): 20%
- accumulation of Pt in bone compared to 195mPt(NO3)2(en) ([5]; Fig. 4C): almost a fourfold increased accumulation
- percentage of Pt co-localized with calcium [5]: 73.5%
- body weight and behavioral changes [6]: no behavioral or body changes were observed
- Pt-based toxicity ([6]; over a period of 7 days): did not observe any Pt-based toxicity

Structure (SMILES): N.N.[Cl][Pt][Cl] [^195mPt-cisplatin]
- inhibition of tumor growth, more effective compared to non-radioactive cisplatin [8]: 30%

Structure (SMILES): N.N.[Cl][Pt][Cl] [cisplatin]
- rapid weight loss followed by recovery within a week ([9]; mice at maximum tolerated dose): ~ 10%
- maximum tolerated dose ([9]; mice): 6 mg/kg
- visual inspection of kidneys based on size and shape [10]: apparent shrinkage
